# According to patent US20090048301A1 (IMCLONE SYSTEMS INCORPORATED, priority 2003, published 2009):
# Read-outs that look alike come from different tables or passages of the source.
# Columns and labels:
# bovine tubulin = experiment: In vitro tubulin polymerization assay (turbidity at 340 nm); assay type: biochemical; conditions: 10 μM compound, 30 minute data point, vs 1% DMSO control
# In short: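 Bovine tubulin (97%, <3% MAPs) at 3 mg/ml final in G-PEM pH 7 with 1 mM GTP and 5% glycerol, added cold to compound wells at 37° C (1% DMSO final). A340 read each minute for 30 min; percent inhibition from 30-min point versus DMSO control.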
# [1] = tested on: A431, human epidermoid carcinoma cells; experiment: Cell cycle analysis (FACS), mitotic arrest in G2/M; assay type: cell-based; conditions: read-out: FACS Assay: concentration required to achieve inhibition in FACS assay
# In short: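 A431 cells, 500,000/well at treatment, exposed to compounds at 0.01–1 μM final (0.1% DMSO) for 24 h. Ethanol-fixed cells RNase-treated (1 μg/ml, 37° C., 15 min), stained with propidium iodide (50 μg/ml, 30 min, RT). DNA ploidy by flow cytometry; mitotic arrest scored as G2/M accumulation.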
SMILES,Tubulin Assay: percent inhibition at 10 μM based on 30 minute data (bovine tubulin) [%],"minimal effective concentration ([1]; Homo sapiens, A-431, 24 h) [µM]",minimal effective concentration ([1]; 24 hours) [µM]
"c1cnc(NCC2CCCO2)c(-c2nnc(Nc3ccc4c(c3)OCCO4)o2)c1 (stereo not drawn) [Compound 175, {3-[5-(2,3-Dihydro-benzo[1,4]dioxin-6-ylamino)-[1,3,4]oxadiazol-2-yl]-pyridin-2-yl}-(tetrahydro-furan-2-ylmethyl)-amine]",90,0.1,
"c1cnc(NCc2ccc3c(c2)OCO3)c(-c2nnc(Nc3ccc4c(c3)OCCO4)o2)c1 [Compound 195, Benzo[1,3]dioxol-5-ylmethyl-{3-[5-(2,3-dihydro-benzo[1,4]dioxin-6-ylamino)-[1,3,4]oxadiazol-2-yl]-pyridin-2-yl}-amine]",73,0.01,
"c1cnc(NCc2ccc3c(c2)OCCO3)c(-c2nnc(Nc3ccc4c(c3)OCO4)o2)c1 [Compound 196, {3-[5-(Benzo[1,3]dioxol-5-ylamino)-[1,3,4]oxadiazol-2-yl]-pyridin-2-yl}-(2,3-dihydro-benzo[1,4]dioxin-6-ylmethyl)-amine]",93,1,
"COc1cc(Nc2nnc(-c3cccnc3NCc3ccco3)o2)cc(OC)c1OC [Compound 197, Furan-2-ylmethyl-{3-[5-(3,4,5-H trimethoxy-phenylamino)-[1,3,4]oxadiazol-2-yl]-pyridin-2-yl}-amine]",66,1,
"c1cnc(NCc2ccc3c(c2)CCO3)c(-c2nnc(Nc3ccc4c(c3)OCO4)o2)c1 [Compound 198, {3-[5-(Benzo[1,3]dioxol-5-ylamino)-[1,3,4]oxadiazol-2-yl]-pyridin-2-yl}-(2,3-dihydro-benzofuran-5-ylmethyl)-amine]",87,0.1,
"c1cnc(NCc2ccc3c(c2)CCO3)c(-c2nnc(Nc3ccc4c(c3)OCCO4)o2)c1 [Compound 199, {3-[5-(2,3-Dihydro-benzo[1,4]dioxin-6-ylamino)-[1,3,4]oxadiazol-2-yl]-pyridin-2-yl}-(2,3-dihydro-benzofuran-5-ylmethyl)-amine]",88,0.1,
"c1cnc(NCC2COCCO2)c(-c2nnc(Nc3ccc4c(c3)OCO4)o2)c1 (stereo not drawn) [Compound 202, {3-[5-(Benzo[1,3]dioxol-5-ylamino)-[1,3,4]oxadiazol-2-yl]-pyridin-2-yl}-[1,4]dioxan-2-ylmethyl-amine]",89,0.1,
"c1cnc(NCC2COCCO2)c(-c2nnc(Nc3ccc4c(c3)OCCO4)o2)c1 (stereo not drawn) [Compound 203, {3-[5-(2,3-Dihydro-benzo[1,4]dioxin-6-ylamino)-[1,3,4]oxadiazol-2-yl]-pyridin-2-yl}-[1,4]dioxan-2-ylmethyl-amine]",69,0.1,
"c1coc(CNc2ncccc2-c2nnc(Nc3ccc4c(c3)OCCO4)o2)c1 [Compound 205, {3-[5-(2,3-Dihydro-benzo[1,4]dioxin-6-ylamino)-[1,3,4]oxadiazol-2-yl]-pyridin-2-yl}-furan-2-ylmethyl-amine]",56,,1
"c1cnc(NCc2ccncc2)c(-c2nnc(Nc3ccc4c(c3)OCCO4)o2)c1 [Compound 206, {3-[5-(2,3-Dihydro-benzo[1,4]dioxin-6-ylamino)-[1,3,4]oxadiazol-2-yl]-pyridin-2-yl}-pyridin-4-ylmethyl-amine]",94,0.025,
"c1ccc(CNc2ncccc2-c2nnc(Nc3ccc4c(c3)OCCO4)o2)nc1 [Compound 207, {3-[5-(2,3-Dihydro-benzo[1,4]dioxin-6-ylamino)-[1,3,4]oxadiazol-2-yl]-pyridin-2-yl}-pyridin-2-ylmethyl-amine]",87,0.025,
"c1cnc(OCc2ccc3c(c2)OCO3)c(-c2nnc(Nc3ccc4c(c3)OCCO4)o2)c1 [Compound 209, {5-[2-(Benzo[1,3]dioxol-5-ylmethoxy)-pyridin-3-yl]-[1,3,4]oxadiazol-2-yl}-(2,3-dihydro-benzo[1,4]dioxin-6-yl)-amine]",80,1,
"Brc1cnn(-c2ncccc2-c2nnc(Nc3ccc4c(c3)OCO4)o2)c1 [Compound 210, Benzo[1,3]dioxol-5-yl-{5-[2-(4-bromo-pyrazol-1-yl)-pyridin-3-yl]-[1,3,4]oxadiazol-2-yl}-amine]",87,1,
"c1cncc(CNc2ccccc2-c2nnc(Nc3ccc4c(c3)OCCO4)o2)c1 [Compound 216, (2,3-Dihydro-benzo[1,4]dioxin-6-yl)-(5-{2-[(pyridin-3-ylmethyl)-amino]-phenyl}-[1,3,4]oxadiazol-2-yl)-amine]",94,0.1,
"c1ccc(CNc2ccccc2-c2nnc(Nc3ccc4c(c3)OCCO4)o2)nc1 [Compound 217, (2,3-Dihydro-benzo[1,4]dioxin-6-yl)-(5-{2-[(pyridin-2-ylmethyl)-amino]-phenyl}-[1,3,4]oxadiazol-2-yl)-amine]",100,0.1,
"c1ccc(-c2nnc(Nc3ccc4c(c3)OCCO4)o2)c(NCc2ccc3c(c2)OCO3)c1 [Compound 218, (5-{2-[(Benzo[1,3]dioxol-5-ylmethyl)-amino]-phenyl}-[1,3,4]oxadiazol-2-yl)-(2,3-dihydro-benzo[1,4]dioxin-6-yl)-amine]",74,0.1,
"COc1cc(CNc2ccccc2-c2nnc(Nc3ccc4c(c3)OCCO4)o2)cc(OC)c1 [Compound 219, (2,3-Dihydro-benzo[1,4]dioxin-6-yl)-{5-[2-(3,5-dimethoxy-benzylamino)-phenyl]-[1,3,4]oxadiazol-2-yl}-amine]",63,0.1,
"c1ccc(-c2nnc(Nc3ccc4c(c3)OCO4)o2)c(NCc2cn[nH]c2)c1 [Compound 224, Benzo[1,3]dioxol-5-yl-(5-{2-[(1H-pyrazol-4-ylmethyl)-amino]-phenyl}-[1,3,4]oxadiazol-2-yl)-amine]",81,1,
"COc1cccc(S(=O)(=O)Nc2ccccc2-c2nnc(Nc3ccc4c(c3)OCO4)o2)c1 [Compound 237, N-{2-[5-(Benzo[1,3]dioxol-5-ylamino)-[1,3,4]oxadiazol-2-yl]-phenyl}-3-methoxy-benzenesulfonamide]",99,1,
"Nc1ccccc1-c1nnc(Nc2ccc3c(c2)OCCO3)o1 [Compound 241, [5-(2-Amino-phenyl)-[1,3,4]oxadiazol-2-yl]-(2,3-dihydro-benzo[1,4]dioxin-6-yl)-amine]",75,1,
"c1ccc(-c2cnc(Nc3ccc4c(c3)OCCO4)o2)c(NCc2ccc3c(c2)OCO3)c1 [Compound 244, (5-{2-[(Benzo[1,3]dioxol-5-ylmethyl)-amino]-phenyl}-oxazol-2-yl)-(2,3-dihydro-benzo[1,4]dioxin-6-yl)-amine]",96,1,
"COc1cc(CNc2ccccc2-c2cnc(Nc3ccc4c(c3)OCCO4)o2)cc(OC)c1 [Compound 246, (2,3-Dihydro-benzo[1,4]dioxin-6-yl)-{5-[2-(3,5-dimethoxy-benzylamino)-phenyl]-oxazol-2-yl}-amine]",72,1,
"COc1cccc(Nc2ncc(-c3ccccc3NCc3ccc4c(c3)OCO4)o2)c1 [Compound 249, (5-{2-[(Benzo[1,3]dioxol-5-ylmethyl)-amino]-phenyl}-oxazol-2-yl)-(3-methoxy-phenyl)-amine]",60,1,
"COc1cccc(Nc2ncc(-c3ccccc3NCc3ccc4c(c3)OCCO4)o2)c1 [Compound 250, (5-{2-[(2,3-Dihydro-benzo[1,4]dioxin-6-ylmethyl)-amino]-phenyl}-oxazol-2-yl)-(3-methoxy-phenyl)-amine]",60,1,
